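All cell lines were grown in 96-well plates and treated with compound for 48 hours. The concentration for full growth arrest is given as TGI.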 Where a SMILES comes first, the peptide text is derived from it. [ ]: non-standard residue; d: D form.
Experiments:
Assay in all cases: DTP human tumour cell line panel, 48 h
EKVX NSCLC = tested on: EKVX NSCLC
CCRF-CEM leukemia = tested on: CCRF-CEM leukemia
NCI-H226 lung = tested on: NCI-H226 lung
NCI-H460 lung = tested on: NCI-H460 lung
HT29 colon = tested on: HT29 colon
SW-620 colon = tested on: SW-620 colon
PC-3 prostate = tested on: PC-3 prostate
NCI/ADR-RES ovarian = tested on: NCI/ADR-RES ovarian
NCI-H522 lung = tested on: NCI-H522 lung
MCF7 breast = tested on: MCF7 breast

| Compound | TGI (EKVX NSCLC) | TGI (CCRF-CEM leukemia) | TGI (NCI-H226 lung) | TGI (NCI-H460 lung) | TGI (HT29 colon) | TGI (SW-620 colon) | TGI (PC-3 prostate) | TGI (NCI/ADR-RES ovarian) | TGI (NCI-H522 lung) | TGI (MCF7 breast) |
| --- | --- | --- | --- | --- | --- | --- | --- | --- | --- | --- |
| OCc1ccc2c(c1)CC1(Cc3ccccc3C1)C2 | 80.2 µM | 54.4 µM | > 100 µM | 44.6 µM | 33.6 µM | 39 µM | 33.5 µM | 59.5 µM | 72.1 µM | – |
| CCOP(=O)(OCC)C(Nc1ccc(Cl)cc1)c1ccc(F)cc1 (stereo not given) | > 100 µM | 93.1 µM | 88 µM | 48.2 µM | 62.9 µM | – | – | 87.3 µM | 49.7 µM | – |
| Cc1cn(C2CC(O)C(Cn3nncc3Cn3nc(Br)c(=O)[nH]c3=O)O2)c(=O)[nH]c1=O (stereo not given) | > 100 µM | > 100 µM | > 100 µM | – | – | > 100 µM | > 100 µM | > 100 µM | > 100 µM | > 100 µM |
| CCSC12OC3(CCCCCN3C1=O)C1C(=O)N(c3ccccc3)C(=O)C12 (stereo not given) | > 100 µM | > 100 µM | > 100 µM | > 100 µM | > 100 µM | > 100 µM | > 100 µM | > 100 µM | > 100 µM | – |
| Cc1cc(C)[n+]2c(c1)C=CC2 | > 100 µM | – | 60.8 µM | > 100 µM | > 100 µM | > 100 µM | – | – | 49.5 µM | – |
| O=S(=O)(O)c1ccc(O)c(N=Nc2c(O)ccc3ccccc23)c1 | > 100 µM | 86.9 µM | > 100 µM | – | > 100 µM | > 100 µM | > 100 µM | > 100 µM | > 100 µM | – |
| O=S(=O)(O)c1cc(S(=O)(=O)O)c2cc(N=Nc3ccc(N=Nc4ccc(/C=C/c5ccc(N=[N+]([O-])c6ccc(/C=C/c7ccc(N=Nc8ccc(N=Nc9ccc%10cc(S(=O)(=O)O)cc(S(=O)(=O)O)c%10c9)cc8)cc7S(=O)(=O)O)c(S(=O)(=O)O)c6)cc5S(=O)(=O)O)c(S(=O)(=O)O)c4)cc3)ccc2c1 | > 100 µM | > 100 µM | > 100 µM | > 100 µM | > 100 µM | – | – | > 100 µM | > 100 µM | > 100 µM |
| NC1(c2cc3ccccc3s2)CCCCCC1 | 33.2 µM | 35.4 µM | 38.4 µM | 28.6 µM | 29.3 µM | 31.1 µM | 24 µM | 33.7 µM | – | 29.7 µM |
| Cc1cc(N(CCC#N)CCC#N)ccc1/C(N=Nc1ccc(C(=O)O)cc1)=N\NC(=O)c1ccccc1 | > 100 µM | > 100 µM | > 100 µM | > 100 µM | 41.2 µM | – | > 100 µM | > 100 µM | 38.5 µM | > 100 µM |
| N#CC1=C(O)NC(O)=C(C#N)C1c1c(Cl)cccc1Cl | > 100 µM | > 100 µM | 64.9 µM | 61.5 µM | > 100 µM | > 100 µM | – | – | > 100 µM | – |
| CC(C)C[C@H](NC(=O)[C@H](CC(C)C)NC(=O)[C@@H](Cc1c[nH]c2ccccc12)NC(=O)[C@H](Cc1ccccc1)NC(=O)[C@@H](Cc1c[nH]c2ccccc12)NC(=O)[C@H](CCC(N)=O)NC(=O)[C@@H](CCC(N)=O)NC(=O)[C@@H]1CCCN1C(=O)[C@@H](CCCCN)NC(=O)[C@H]1CCCN1C(=O)[C@H](N)CCCN=C(N)N)C(N)=O (H-[dR][dP][dK]P[dQ]Q[dW]F[dW]LL-NH2) | > 100 µM | > 100 µM | > 100 µM | > 100 µM | > 100 µM | > 100 µM | – | > 100 µM | > 100 µM | > 100 µM |
| O=c1c2cccnc2oc2c(Cl)cc(-c3nn[nH]n3)cc12 | > 100 µM | > 100 µM | > 100 µM | – | > 100 µM | > 100 µM | > 100 µM | > 100 µM | – | – |
| N#CCCN(CCCCN(CCC#N)C(=O)Nc1ccccc1)C(=O)Nc1ccccc1 | > 100 µM | – | > 100 µM | > 100 µM | > 100 µM | > 100 µM | > 100 µM | > 100 µM | > 100 µM | > 100 µM |
| COC(=O)/C1=C/C=C\C[C@@]2(C)CC(c3ccoc3)OC(=O)[C@@H]2CC[C@H]1C (stereo not given in full) | > 25 µM | > 25 µM | > 25 µM | > 25 µM | > 25 µM | > 25 µM | > 25 µM | > 25 µM | – | > 25 µM |
| CC(C)(C)OC(=O)N1C(=O)C2CCCC21 (stereo not given) | – | > 100 µM | > 100 µM | > 100 µM | > 100 µM | > 100 µM | > 100 µM | > 100 µM | – | – |
| C=CC(=O)N1C/C(=C\c2ccc(OC)cc2)C(=O)/C(=C/c2ccc(OC)cc2)C1 | 40.7 µM | > 25.7 µM | 4.6 µM | 6.82 µM | 2.88 µM | 8.02 µM | 4.19 µM | > 31 µM | – | 5.01 µM |
| COc1ccc(C2N(c3ccc(C)c(N=C=O)c3)C(=O)N3C(c4ccc(OC)cc4)N(c4ccc(C)c(N=C=O)c4)C(=O)N23)cc1 (stereo not given) | > 100 µM | > 100 µM | > 100 µM | > 100 µM | > 100 µM | > 100 µM | > 100 µM | > 100 µM | – | > 100 µM |
| COc1cc2c3c(n(C)c(=O)c2cc1OC)-c1cc2c(cc1/C3=C\CCCCl)OCO2 | > 100 µM | > 100 µM | – | > 100 µM | > 100 µM | > 100 µM | > 100 µM | > 100 µM | > 100 µM | > 100 µM |
| CCOC(=O)c1sc2nc(SC)nc3c2c1NCN3C | – | > 100 µM | > 100 µM | > 100 µM | > 100 µM | – | > 100 µM | > 100 µM | – | – |
| CN(C)C(=O)N1N[C@H](c2ccccc2)[C@@H]1c1ccccc1 | > 100 µM | > 100 µM | > 100 µM | – | – | > 100 µM | > 100 µM | > 100 µM | > 100 µM | > 100 µM |
| Clc1ccc(C2SCc3nc4ccccc4n32)cc1 (stereo not given) | > 100 µM | 78.9 µM | 75.4 µM | 93.3 µM | 49.4 µM | > 100 µM | – | – | 44.4 µM | – |
| CCN(CC)/N=C\c1c2ccccc2cc2ccccc12 | > 100 µM | 94.4 µM | – | > 100 µM | 88.3 µM | > 100 µM | > 100 µM | > 100 µM | 63.7 µM | – |
| [N-]=[N+]=Nc1cc(=O)[nH]c2ccccc12 | 42.5 µM | > 100 µM | > 100 µM | – | > 100 µM | > 100 µM | > 100 µM | > 100 µM | > 100 µM | > 100 µM |
| O=C(CSc1nc2ccc(I)cc2c(=O)n1Cc1ccccc1)Nc1ccccc1 | 11.6 µM | > 100 µM | 44.5 µM | – | > 100 µM | > 100 µM | 31.9 µM | 93.2 µM | 90.6 µM | > 100 µM |

From PubChem BioAssay (NCI)
